This passage reports IC50 results from ChEMBL document CHEMBL5728984, “Tricyclic inhibitors of poly(ADP-ribose)polymerase” (2022).

As usually defined, the IC50 is the point on the concentration scale where inhibition reaches its midpoint.

The target in this assay is Poly [ADP-ribose] polymerase 1 (Homo sapiens, UniProt P09874). Kind of assay: Enzyme Assay: Inhibition of PARP-1 enzymatic activities was measured using an HT Universal Colorimetric PARP Assay Kit (Trevigen, catalogue #4677-096-K) following the standard procedures. Serial dilutions of PARP compounds were added to appropriate wells. The compound was incubated with PARP enzyme at RT for 10 min, and the reaction was initiated by addition of the PARP substrate cocktail, Each concentration of compound was tested in triplicate wells. After 15 min reaction, the reaction was stopped, and the Strep-HRP was added into each well and incubated for 1 h at RT. After addition of TACS-Sapphire colorimetric substrate and incubated in dark for 15 min, the OD450 was read out with an EnVision instrument. IC50 values (the concentration at which 50% of the enzyme activity is inhibited) were calculated, which are determined over a range of different concentrations, normally from 10 uM to 0.1 nM.
Poly [ADP-ribose] polymerase 1, sequence (P09874 whole entry): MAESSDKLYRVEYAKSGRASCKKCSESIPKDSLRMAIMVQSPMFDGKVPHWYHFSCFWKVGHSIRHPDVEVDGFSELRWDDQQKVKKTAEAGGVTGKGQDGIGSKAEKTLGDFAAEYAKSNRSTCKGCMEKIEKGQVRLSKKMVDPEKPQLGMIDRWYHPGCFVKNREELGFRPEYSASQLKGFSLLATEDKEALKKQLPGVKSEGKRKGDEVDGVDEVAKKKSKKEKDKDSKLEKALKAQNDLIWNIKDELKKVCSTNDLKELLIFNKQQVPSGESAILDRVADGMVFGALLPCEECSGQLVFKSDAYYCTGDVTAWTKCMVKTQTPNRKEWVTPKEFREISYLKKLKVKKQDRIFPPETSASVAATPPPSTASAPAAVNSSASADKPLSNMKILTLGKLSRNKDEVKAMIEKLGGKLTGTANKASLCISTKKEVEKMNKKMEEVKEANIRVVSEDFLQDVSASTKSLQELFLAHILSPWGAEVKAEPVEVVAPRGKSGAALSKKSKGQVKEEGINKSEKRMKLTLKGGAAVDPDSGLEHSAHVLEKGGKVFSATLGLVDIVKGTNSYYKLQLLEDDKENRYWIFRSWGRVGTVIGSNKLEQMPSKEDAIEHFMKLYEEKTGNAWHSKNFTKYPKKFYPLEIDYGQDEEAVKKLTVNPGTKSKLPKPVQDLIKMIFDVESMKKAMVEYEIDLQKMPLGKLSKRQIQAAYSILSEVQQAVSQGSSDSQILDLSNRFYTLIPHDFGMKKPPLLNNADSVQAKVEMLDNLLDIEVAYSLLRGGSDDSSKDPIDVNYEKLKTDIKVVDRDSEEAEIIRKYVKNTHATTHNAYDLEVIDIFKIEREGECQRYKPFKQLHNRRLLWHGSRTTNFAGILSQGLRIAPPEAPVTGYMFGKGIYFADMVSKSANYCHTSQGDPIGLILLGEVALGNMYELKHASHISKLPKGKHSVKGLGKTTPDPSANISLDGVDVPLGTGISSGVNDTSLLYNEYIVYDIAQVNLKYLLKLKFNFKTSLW
Regarding `O=c1[nH]nc(Cc2ccc(F)c(P3(=O)CCN(c4ncccn4)CC3)c2)c2ccccc12`, the IC50 was < 0.1 µM.

With `CC(C)P1(=O)CCN(C(=O)c2cc(Cc3n[nH]c(=O)c4ccccc34)ccc2F)CC1`, the IC50 is < 0.1 µM.

`N#C/N=C(\N1CCC1)N1CCP(=O)(c2cc(Cc3n[nH]c(=O)c4ccccc34)ccc2F)CC1`: the IC50 is < 0.1 µM.

Take `CCP1(=O)CCN(C(=O)c2cc(Cc3n[nH]c(=O)c4ccccc34)ccc2F)CC1`: the IC50 was < 0.1 µM.

For the molecule `CC(C)CN1CCP(=O)(c2cc(Cc3n[nH]c(=O)c4ccccc34)ccc2F)CC1`, the IC50 is < 0.1 µM.

Regarding `CC(C)(C)C(=O)N1CCP(=O)(c2cc(Cc3n[nH]c(=O)c4ccccc34)ccc2F)CC1`, the IC50 was < 0.1 µM.

Turning to `CCOP1(=O)CCN(C(=O)c2cc(Cc3n[nH]c(=O)c4ccccc34)ccc2F)CC1`, the IC50 was < 0.1 µM.
